# Measured values as given in article PMC8881501, “Identification of SARS-CoV-2 inhibitors targeting Mpro and PLpro using in-cell-protease assay” (Communications Biology, 2022).
# “And” between values parts separate entries of the source, which are not always exact repeats. Identical values can stand only once. Counter-ions that a name gives are not always drawn. Like-named read-outs stand apart in the source and are kept apart here.
# Tests used:
# [1] = molecular target: T1, SARS-CoV-2 Mpro (Severe acute respiratory syndrome coronavirus 2, UniProt P0DTC1); assay: In-cell protease (ICP) assay, Mpro construct in HEK293T cells; format: cell-based; details: for remaining activity at 1 µM / remaining activity at 10 µM: HEK-293T; for remaining activity at 1 µM: read-out: mEmerald-NLS nuclear/total fluorescence (protease activity) normalized to untreated cells, 1 μM, HEK293T, Fig 2A replicate data, untreated control = 100; for remaining activity at 10 µM: read-out: mEmerald-NLS nuclear/total fluorescence (protease activity) normalized to untreated cells, 10 μM, HEK293T, Fig 2A replicate data, untreated control = 100
# [2] = test system: HEK293T cells; assay: Cell viability (alamarBlue) on HEK293T cells; details: replicate data
# [3] = molecular target: T1, SARS-CoV-2 Mpro; assay: biochemical; details: for inhibition of Mpro protease activity: FRET assay
# Procedure: A cleavage site is indicated by an asterisk. […] N = 3, values are represented as mean ± SE.
# For the determination of half-maximal inhibitory concentrations (IC50) of MG-101 and GC376 (BPS Bioscience), a synthetic substrate of Mpro containing FRET pair and Mpro nsp4/5 cleavage site (indicated by an arrow, Dabcyl-KTSAVLQ ↓ SGFRKME-Edans) (BPS Bioscience) was used for the FRET-based cleavage assay. The assay was performed in 96-well, black, flat-bottomed microtiter plates (Greiner Bio-One, Germany) with a final volume of 50 μl. Mpro (a final concentration of 200 nM) was pre-incubated for 1 h at 22 °C with compounds at different concentrations in the assay buffer (20 mM HEPES (pH 7), 0.5 mM EDTA, 1 mM dithiothreitol, 5% glycerol). The substrate was then added at a final concentration of 10 μM to the reaction mixture and the reaction was incubated for 4 h at 22 °C. The readings for the different concentrations of the inhibitor compounds incubated with the substrate without Mpro were measured as a blank. The fluorescence signals (excitation/emission, 360 nm/460 nm) of released EDANS were measured using Infinite 200 PRO multimode plate reader (Tecan, USA). The results were plotted as dose inhibition curves using nonlinear regression with a variable slope to determine the IC50 values of inhibitor compounds using GraphPad Prism 9.0.
# [4] = test system: SARS-CoV-2; format: cell-based; details: Huh-7.5, MOI 0.1, 24 h.p.i., anti-N IFA
# [5] = Cytotoxicity assay (alamarBlue) on Huh-7.5 cells; details: human, CC50, Huh-7.5 cells, alamarBlue reduction
# [6] = test system: SARS-CoV-2; assay: microbe, parasite or virus in culture; format: cell-based
# [7] = test system: SARS-CoV-2; details: Vero E6 cells; cited from earlier work
# [8] = in vitro; details: human
# [9] = molecular target: T2, SARS-CoV-2 PLpro (Severe acute respiratory syndrome coronavirus 2, UniProt P0DTC1); assay: In vitro PLpro protease inhibition assay (Z-RLRGG-AMC); format: biochemical
# [10] = test system: SARS-CoV-2; assay: qRT-PCR of viral RNA molecules in infected Huh-7.5 cells; format: cell-based; details: Huh-7.5, 24 h.p.i.
# Procedure: We tested the effect of selected compounds in inhibiting the spread of SARS-CoV-2 on cell monolayers was tested by immunofluorescence assay (IFA) (Fig. 5a). From the percentage of inhibition (Fig. 5b), we calculated that the PLpro inhibitors Sitagliptin and Daclastavir inhibited virus spread by 75% and 70%, respectively, compared to untreated controls (Fig. 5b). […] We next determined whether the reduction in virus spread in the inhibitor-treated cells correlates with virus replication. We extracted total RNA from infected cells treated with inhibitors and quantified the number of viral RNA molecules by quantitative real-time polymerase chain reaction (qRT-PCR) (Fig. 5c). […] However, the reduction in the number of viral RNA molecules was lower for BMS-707035 (1-log reduction), Atazanavir (0.5-log), and Lomibuvir (0.5-log).
# Fig. 5 Effect of compounds selected from ICP assay on SARS-CoV-2 replication. a Huh-7.5 cells positive for SARS-CoV-2 determined by immunofluorescence assay. Huh-7.5 cells pre-treated for 24 h with inhibitors were infected with SARS-CoV-2 at an MOI of 0.1. At 24 h.p.i., cells were fixed with paraformaldehyde and probed with anti-N (SARS CoV-2 nucleocapsid) primary antibody and FITC-conjugated goat anti-rabbit secondary antibody (green, infected cells). Nuclei were stained with Hoechst stain and confocal images were acquired. b The ratio of infected to uninfected cells for each treatment was calculated using Nikon Elements software and normalized to untreated controls (n = 5). c Quantification of SARS-CoV-2 RNA molecules from infected cells treated with inhibitors as indicated (n = 3).
# Huh-7.5 cells grown in DMEM in 6 well tissue culture plates were pre-treated with different concentrations of compounds for 24 h were infected with 0.1 MOI of SARS-CoV-2. After 1 h of infection, virus-containing media were replaced with fresh media-containing compounds, and the plates were incubated at 37 °C. Untreated cells were included in the experiment as controls. After 24 h, total RNA was extracted from the cells using a Zymopure Quick-RNA extraction kit. The number of viral RNA molecules in the extracted total RNA samples was determined by quantitative RT-PCR on a QuantStudio-3 machine (Applied BioSystems) using primers –Forward […] and Reverse […]. The Ct values obtained were used to calculate the number of RNA molecules using a standard curve of Ct versus RNA molecules.
# [11] = test system: Mpro; details: read-out: IC50, reported value; cited from earlier work
# [12] = test system: SARS-CoV; details: Vero E6 cells; cited from earlier work
# [13] = test system: Huh-7.5 cells; assay: Cytotoxicity assay (alamarBlue) on Huh-7.5 cells; details: Huh-7.5 cells, alamarBlue reduction
# [14] = test system: SARS-CoV-2; assay: Time of addition (pre-treatment) experiment in Huh-7.5 cells, plaque assay; format: cell-based; details: Huh-7.5, pretreatment
# [15] = molecular target: T2, SARS-CoV-2 PLpro; assay: cell-based; details: HEK-293T, read-out: mEmerald-NLS nuclear/total fluorescence (protease activity) normalized to untreated cells, 10 μM, HEK293T, Fig 2A replicate data, untreated control = 100
# [16] = test system: COVID-19; parameters: method as in PMID 32994187; details: cited from earlier work
# [17] = Severe acute respiratory syndrome coronavirus 2, Huh7.5, Huh-7.5 cells, MOI 0.1, 24 h.p.i., plaque assay
smiles,measurement,setting,value
C=C[C@@H]1C[C@]1(NC(=O)[C@@H]1C[C@@H](Oc2ncc(OC)c3ccc(Cl)cc23)CN1C(=O)[C@@H](NC(=O)OC(C)(C)C)C(C)(C)C)C(=O)NS(=O)(=O)C1CC1 [Asunaprevir],remaining activity at 1 µM,[1],88%
same,remaining activity at 10 µM,[1],69%
same,% normalised alamar Blue reduction at 10μM,[2],78% and 88% and 90%
COC(=O)N[C@H](C(=O)N[C@@H](Cc1ccccc1)[C@@H](O)CN(Cc1ccc(-c2ccccn2)cc1)NC(=O)[C@@H](NC(=O)OC)C(C)(C)C)C(C)(C)C [Atazanavir],inhibition of Mpro protease activity,[3],not found to be effectively inhibiting the Mpro protease activity
same,remaining activity at 1 µM,[1],89%
same,remaining activity at 10 µM,[1],50%
same,inhibition of virus spread compared to untreated controls,[4],below 50%
same,% normalised alamar Blue reduction at 10μM,[2]; listed as Atazanavir sulfate,89% and 95.2% and 90.5%
same,CC50 at 24 h,[5],77200 nM
same,EC50,[6]; [17],60 nM
same,EC50,[7],500 ± 80 nM
Cn1c(N2CCCCS2(=O)=O)nc(C(=O)NCc2ccc(F)cc2)c(O)c1=O [BMS-707035],CC50 at 24 h,[8]; CC50,42200 nM
same,inhibition of Mpro protease activity,[3],not found to be effectively inhibiting the Mpro protease activity
same,remaining activity at 1 µM,[1],79%
same,remaining activity at 10 µM,[1],60%
same,inhibition of virus spread compared to untreated controls,[4],81%
same,EC50,"[6]; Severe acute respiratory syndrome coronavirus 2, Huh7.5, Huh-7.5 cells",270 nM
CC(C)(C)NC(=O)N[C@H](C(=O)N1C[C@H]2[C@@H]([C@H]1C(=O)NC(CC1CCC1)C(=O)C(N)=O)C2(C)C)C(C)(C)C (stereo partly shown) [Bocoprevir],remaining activity at 1 µM,[1],71%
same,remaining activity at 10 µM,[1],69%
COC(=O)N[C@H](C(=O)N1CCC[C@H]1c1nc(-c2ccc(-c3ccc(-c4c[nH]c([C@@H]5CCCN5C(=O)[C@@H](NC(=O)OC)C(C)C)n4)cc3)cc2)c[nH]1)C(C)C [Daclastavir HCl],IC50,[9],1840 ± 256 nM
same,reduction in the number of viral RNA molecules compared to untreated cells,[10],2 log
same,inhibition of virus spread compared to untreated controls,[4],70%
same,% normalised alamar Blue reduction at 10μM,[2]; listed as Daclatasvir dihydrochloride,89% and 80% and 96%
same,CC50 at 24 h,[5],32100 nM
same,EC50,[6]; [17],1590 nM
COC(=O)N[C@H](C(=O)N1CCC[C@H]1c1nc(-c2ccc(-c3ccc(-c4c[nH]c([C@@H]5CCCN5C(=O)[C@@H](NC(=O)OC)C(C)C)n4)cc3)cc2)c[nH]1)C(C)C [Daclatasvir (BMS-790052)],% normalised alamar Blue reduction at 10μM,[2],80% and 88% and 75%
CC(C)CN(C[C@@H](O)[C@H](Cc1ccccc1)NC(=O)O[C@H]1CO[C@H]2OCC[C@H]21)S(=O)(=O)c1ccc(N)cc1 [Darunavir],% normalised alamar Blue reduction at 10μM,[2],80% and 97% and 79%
CC(C)C[C@H](NC(=O)OCc1ccccc1)C(=O)N[C@@H](CC1CCNC1=O)C(O)S(=O)(=O)O (stereo partly shown) [GC376],IC50,[3],130 ± 70 nM
same,IC50,[11],190 nM
COc1cc(O)c(CC=C(C)C)c2c1C(=O)CC(c1ccc(O)cc1)O2 (stereo not shown) [Isoxanthohumol],remaining activity at 1 µM,[1],90%
same,remaining activity at 10 µM,[1],60%
CC(C)(C)C#Cc1cc(N(C(=O)[C@H]2CC[C@H](C)CC2)[C@H]2CC[C@H](O)CC2)c(C(=O)O)s1 [Lomibuvir],CC50 at 24 h,[8]; CC50,48000 nM
same,inhibition of Mpro protease activity,[3],not found to be effectively inhibiting the Mpro protease activity
same,remaining activity at 1 µM,[1],90%
same,remaining activity at 10 µM,[1],44%
same,inhibition of virus spread compared to untreated controls,[4],below 50%
same,EC50,[6]; [17],70 nM
Cc1cccc(C)c1OCC(=O)N[C@@H](Cc1ccccc1)[C@@H](O)C[C@H](Cc1ccccc1)NC(=O)[C@H](C(C)C)N1CCCNC1=O [Lopinavir],remaining activity at 1 µM,[1],80%
same,remaining activity at 10 µM,[1],65%
O[C@H]1[C@H]2c3cc4c(cc3CN3CCC(=C[C@@H]1O)[C@H]23)OCO4 [Lycorine HCl],EC50,[12],16 nM
same,inhibition of Mpro protease activity,[3],not found to be effectively inhibiting the Mpro protease activity
same,remaining activity at 1 µM,[1],43%
same,remaining activity at 10 µM,[1],25%
same,inhibition of virus spread compared to untreated controls,[4],88%
same,% normalised alamar Blue reduction at 10μM,[2]; listed as Lycorine hydrochloride,76% and 65% and 69.32%
same,CC50 at 24 h,[5],18800 nM
same,CC50,[13],19000 nM
same,effect of pre-treatment on virus production / entry,[14],only minimal effect on virus production
same,Selectivity index SI = CC50/EC50,[6]; Huh-7.5 cells,1878
same,EC50,"[6]; Severe acute respiratory syndrome coronavirus 2, Huh7.5, 24 h",10 nM
same,EC50,[7],300 nM
Cc1c(O)cccc1C(=O)N[C@@H](CSc1ccccc1)[C@H](O)CN1C[C@H]2CCCC[C@H]2C[C@H]1C(=O)NC(C)(C)C [Nelfinavir mesylate],inhibition of Mpro protease activity,[3],not found to be effectively inhibiting the Mpro protease activity
same,remaining activity at 1 µM,[1],60%
same,remaining activity at 10 µM,[1],45%
same,reduction in the number of viral RNA molecules compared to untreated cells,[10],approximately 3 log
same,reduction in the number of viral RNA molecules compared to untreated cells,[10]; listed as Nelfinavir,3 log
same,inhibition of virus spread compared to untreated controls,[4],95%
same,% normalised alamar Blue reduction at 10μM,[2],88% and 75.67% and 90%
same,CC50 at 24 h,[5],26000 nM
same,CC50,[13],26000 nM
same,effect of pre-treatment on virus production / entry,[14],only minimal effect on virus production
same,"virus titer at 24 h.p.i., Fig S2B data","[6]; 1 µM final concentration (each), Huh-7.5, replicates",80000 and 64000 and 88000
same,EC50,[6]; [17],70 nM
N[C@@H](CC(=O)N1CCn2c(nnc2C(F)(F)F)C1)Cc1cc(F)c(F)cc1F [Sitagliptin],CC50 at 24 h,"[8]; CC50, Huh-7.5 cells, alamarBlue reduction",21600 nM
same,IC50,"[9]; PLpro 300 nM, Z-RLRGG-AMC 25 μM, read-out: IC50",1140 ± 190 nM
same,remaining activity at 10 µM,[15],56%
same,effect on Mpro activity in cells,[1]; ICP assay,does not inhibit Mpro activity
same,reduction in the number of viral RNA molecules compared to untreated cells,[10],2 log
same,inhibition of virus spread compared to untreated controls,[4],75%
same,CC50,[13],22000 nM
same,Selectivity index SI = CC50/EC50,[6],67
same,EC50,[6]; [17],320 nM
same,"virus titer at 24 h.p.i., Fig 6A data","[6]; single drug 1 μM, Huh 7.5, replicates",56000 and 64000 and 40000
same,mortality rate (deceased patients),"[16]; added to standard care, vs. 37% with standard of care",18%
same,improved clinical outcomes (improved patients),[16]; vs. 38% with standard of care,60%
same,hospital discharges (discharged patients),[16]; vs. 89 with standard of care,120
